# Where two headings read alike, the source gives them in different places.
# How the values were obtained:
# male SD rats [1] = test: Ulcer forming activity; type: in vivo; conditions: oral 10 mg/kg once daily for 5 days; 10 rats per group; stomach ulcers observed after 24 hours fasting
# Protocol: The test compounds were orally administered to male SD rats, 10 per a group, at the dosage of 10 mg/kg, once daily for 5 days. After the final administration, rats were fasted for 24 hours and killed by blood releasing under ether anesthesia. The stomachs were taken out and the presence of ulcers were observed.
# The same experiments were done with control compounds, E-5110 [Arznein Forsch. Drug Res., 37, 930 (1987), ibid, 37, 936 (1987)] abd diclofenac.
# male SD rats [2] = test: Carageenin induced paw edema; type: in vivo; conditions: oral, 1 hour before carageenin, paw volume 3 hours after carageenin, suppression of edema forming rate
# Protocol: The test compounds were orally administered to male SD rats, 10 per a group, which were fasted for 24 hours prior to the administration, and after one hour, 0.1 ml of 1% λ-carageenin (Picnin A, Zushi Chemical Co., Ltd.) in saline was injected subcutaneously into the right hind paw. The paw volumes were measured plethysmographically at before and 3 hours after the carageenin administration. Defining the paw volume before the injection of the λ-carageenin as the basal volume, the edema forming rates were calculated by the following equation. Edma Forming Rate(%) =((Paw volume after carageenin injection) - (Paw volume before carageenin injection))/(Paw volume before carageenin injection)x 100 [formula]
# Compounds shown in the examples 1 -3 and 5 were tested and diclofenac was used as controls.
# [3] = test system: bronchis of Hartle guinea pigs; test: Dilating action of bronchia by Schultz-dale reaction
# Protocol: The specimens were prepared by removing the bronchis of Hartle guinea pigs after sensitizing them with egg white albumin and terminating them by blood releasing under ether anesthesia. Each specimen was hanged down in the Magnus vessel filled with Tyrode's solution (saturated with gas composed of 95% oxygen and 5% carbon dioxide by bubbling at pH 7.4 and at […]). A tension of 1g was loaded to the specimen. After the tension became constant, histamine was added to the final concentration of 2 x 10⁻⁷ g/ml to cause the specimen to contract. The specimen was taken out from the vessel, washed thoroughly and hanged down in a different Magnus vessel filled with egg white albumin, of which final concentration was 1 x 10⁻⁵ g/ml, to cause the specimen to contract. […] As a control, theophylline in 0.1% dimethylsulphoxide aqueous solution was used. The efficacy of the test compounds was described by the suppression rate, in percentage, calculated from the contraction value obtained after the addition of the test compound, defining the contraction value caused by the egg white albumin before the addition of the test compound as 100 %.
# [4] = Scavenging activity of hydroxy radicals (linolenic acid peroxidation, absorbance at 234 nm); type: biochemical; conditions: test compound concentration 10 µM
# Protocol: Scavenging activity of hydroxy radicals were confirmed according to the method of Kharasch et al. [J. Biol. Chem., 260, 106452 (1985)]. The method is as follows. The reactions were started by adding 80 µM iron chloride (II) to the reaction mixture containing test compounds, 30 mM sodium chloride, 1.0 mM linolenic acid, 0.08% rubrol and 100 µM hydrogen peroxide in 1% N,N-dimethylformamide aqueous solution. The time course of peroxidation reaction caused by the action of hydroxy radicals to linolenic acid were monitored by measuring the change of absorbance at 234 nm reflecting the generation of conjugate double bond, and thus the disappearance of the hydroxy radicals by test compounds was measured. The reaction suppression rates of test compounds at their concentration of 10 µM were calculated and the values are listed in Table 5 below.
# SD rats = test: Repeated administration toxicity in SD rats; type: in vivo; conditions: 500 mg/kg, repeatedly for 2 weeks
# Text: Theophylline is known to have high toxicity and its LD₅₀ is about […] in rat. […]
# rat = conditions: cited from earlier work
# male mongolian gerbils = test: Brain edema (carotid artery occlusion and re-perfusion); type: in vivo; conditions: 2 mg/kg intraperitoneally 15 minutes before occlusion; 3 hours ischemia, 3 hours re-perfusion; 6 per group
# Protocol: The total left carotid artery of male mongolian gerbils were separated from surrounding tissues and exposed under the Halosen anesthesia, and when awakened from the anesthesia, the total left carotid arteries were occuled by a aneurysm forming clip. […] The next day, the total left caroted artery of the selected animals, 6 per a group, were re-exposed under the Halosen anesthesia, and when these animals were awakened, the test compounds were administered intraperitoneally (2 mg/kg), followed by occluding the left total carotid artery by a aneurysm forming clip 15 minutes after the administration. After 3 hours ischemla, the clips were removed to re-perfusion. The animals were guillotined at 3 hours after the re-perfusion, immediately followed by removing out the brains, separated their left and right parts at its median line and measured each brain weights. The brains were dried in the dry heat sterilizer at 100°C for 3 days, and measured each brain weights.
# Here, for the comparison, experiments with only surgical operations and stitchings were done as a operation only group, and experiments with only surgical operations, clip blockigs and stitchings and without the administration of the test compounds were done as a control group.
SMILES,Ulcer Cases (male SD rats [1]),Suppression Rate (%) (male SD rats [2]; dose 2 mg/kg),IC50 ([3]; Cavia porcellus),Suppression Rate (%) [4],other results
"CON1CC/C(=C\c2cc(C(C)(C)C)c(O)c(C(C)(C)C)c2)C1=O [Example E-5110, reference compound]",3/10,–,–,–,–
"CC(C)(C)c1cc(C=C2C(=O)NC(=O)N(C3CCCCC3)C2=O)cc(C(C)(C)C)c1O [Example 5, 1-cyclohexyl-5-(3,5-di-tert-butyl-4-hydroxybenzylidene)-pyrimidine-2,4,6-trione]",0/10,24%,59 µM,31%,–
"CN1C(=O)C(=Cc2cc(C(C)(C)C)c(O)c(C(C)(C)C)c2)C(=O)N(c2ccccc2)C1=O [Example 1, 1-methyl-3-phenyl-5-(3,5-di-tert-butyl-4-hydroxybenzylidene)-pyrimidine-2,4,6-trione]",0/10,48%,50 µM,59%,abnormal symptoms (SD rats): no abnormal symptoms were observed
"CC(C)(C)c1cc(C=C2C(=O)NC(=O)N(c3ccccc3)C2=O)cc(C(C)(C)C)c1O [Example 6, 1-phenyl-5-(3,5-di-tert-butyl-4-hydroxybeniylidene)-pyrimidine-2,4,6-trione]",0/10,–,–,25%,"IC50 ([3]; suppression of egg white albumin (1 x 10⁻⁵ g/ml) induced contraction of sensitized guinea pig bronchi, read-out: IC50): 44 µM"
"O=C(O)Cc1ccccc1Nc1c(Cl)cccc1Cl [Diclofenac, reference compound]",2/10,–,–,–,Suppression Rate (%) (male SD rats [2]; dose 10 mg/kg): 51%
"CCCCN1C(=O)NC(=O)C(=Cc2cc(C(C)(C)C)c(O)c(C(C)(C)C)c2)C1=O [Example 4, 1-butyl-5-(3,5-di-tert-butyl-4-hydroxybenzylidene)-pyrimidine-2,4,6-trione]",0/10,–,43 µM,18%,–
"CC(C)(C)c1cc(C=C2C(=O)N(C3CCCCC3)C(=O)N(C3CCCCC3)C2=O)cc(C(C)(C)C)c1O [Example 3, 1,3-dicyclohexyl-5-(3,5-di-tert-butyl-4-hydroxybenzylidene)-pyrimidine-2,4,6-trione]",1/10,11%,57 µM,–,–
"CCN1C(=O)C(=Cc2cc(C(C)(C)C)c(O)c(C(C)(C)C)c2)C(=O)N(CC)C1=O [Example 2, 1,3-diethyl-5-(3,5-di-tert-butyl-4-hydroxybenzylidene)-pyrimidine-2,4,6-trione]",–,32%,67 µM,15%,–
"Cn1c(=O)c2[nH]cnc2n(C)c1=O [Theophylline, reference compound]",–,–,–,–,"IC50 ([3]; Cavia porcellus, suppression of egg white albumin (1 x 10⁻⁵ g/ml) induced contraction of sensitized guinea pig bronchi, read-out: IC50): 35 µM; LD₅₀ (rat): about 300 mixing"
"Cc1ccc(N2C(=O)C(=Cc3cc(C(C)(C)C)c(O)c(C(C)(C)C)c3)C(=O)N(c3ccc(C)cc3)C2=O)cc1 [Example 7, 1,3-di-p-tolyl-5-(3,5-di-tert-butyl-4-hydroxybenzylidene)-pyrimidine-2,4,6-trione]",–,–,39 µM,60%,"water contents, Normal Side (male mongolian gerbils): 79.64 ± 0.09; water contents, Occlusion Side (male mongolian gerbils): 79.94 ± 0.33"
